# Laboratory results taken from patent US12291508B2, “Hydrazide containing nuclear transport modulators and uses thereof” (Karyopharm Therapeutics Inc., priority 2011, dated 2025).
# pIC50: −log10 of the molar value. Structures can show the parent of a compound that is named as a salt.
# Legend:
# [1] = tested on: MM.1S multiple myeloma cell line; test: CellTiter 96 AQueous One Solution cell proliferation assay, MM.1S; type: cell-based; conditions: Homo sapiens, MM1.S, 72 h of treatment, read-out: Cytotoxicity Assay
# Text: The CellTiter 96® AQueous One Solution cell proliferation assay (Promega) was used on MM.1S multiple myeloma cell line to study the cytotoxic and cytostatic properties of the compounds. The assay is based on the cleavage of the tetrazolium salt, MTS, in the presence of an electron-coupling reagent PES (phenazine ethosulfate). The MTS tetrazolium compound is bioreduced by cells into a colored formazan product that is soluble in tissue culture medium. This conversion is presumably accomplished by NADPH or NADH produced by dehydrogenase enzymes in metabolically active cells. Assays are performed by adding a small amount of the CellTiter 96® AQueous One solution reagent directly to culture wells, incubating for 1-4 hours and then recording the absorbance at 490 nm with a 96-well plate reader.
# The cells were seeded at 5×10^3 to 1.5×10^4 cells in each well of a 96-well plate in 100 μL of fresh culture medium and adherent cells were allowed to attach overnight. The stock solutions of the compounds were diluted in cell culture medium to obtain eight concentrations of each drug, ranging from 1 nM to 30 μM and DMSO at less than 1% v/v was used as a negative control. The resulting drug solutions were transferred onto the cells. After 72 h of treatment, 20 μl of CellTiter 96® AQueous reagent was added into each well of the 96-well assay plates and the plate was incubated at 37° C. for 1-4 hours in a humidified, 5% CO2 atmosphere. Then the absorbance of each well was recorded at 490 nm using a 96-well plate reader. In most cases, the assay was performed in triplicate and the results were presented as half maximal inhibitory concentration (IC50). Optical density versus compound concentration was plotted and analyzed using non-linear regression equations (IDBS XLfit) and the IC50 for each compound was calculated.
# [2] = target: T1, CRM1-mediated nuclear export (Homo sapiens, UniProt O14980); test: RevGFP assay, inhibition of nuclear export; type: cell-based; conditions: U2OS-RevGFP cells, about 1 hr incubation; read-out: Rev Export
# T1 construct: endogenous in cells; host or cells: U2OS-RevGFP cells
# Experimental: The ability of exemplary compounds of the invention to inhibit CRM1-mediated nuclear export was assessed in a RevGFP assay. Rev is a protein from human immunodeficiency virus type 1 (HIV-1) and contains a nuclear export signal (NES) in its C-terminal domain and a nuclear localization signal (NLS) in its N-terminal domain. Nuclear export of Rev protein is dependent on the classical NES/CRM1 pathway (Neville et al. 1997).
# In this assay, U2OS-RevGFP cells were seeded onto clear-bottomed, black, 384-well plates the day before the experiment. Compounds were serially diluted 1:2 in DMEM, starting from 40 μM in a separate, 384-well plate, and then transferred onto the cells. The cells were incubated with compound for about 1 hr before fixation with 3.7% formaldehyde and nuclei staining with Hoechst 33258. The amount of GFP in cell nuclei was measured and the IC50 of each compound was determined (Kau et al. 2003).
# [3] = Pharmacokinetic (PK) assay, plasma AUC in mice; type: in vivo; conditions: 10 mg/kg po; for AUC(0-inf): mouse, plasma
# Experimental: AUC. Blood was collected from mice (N=3) to contribute to the total of 10 time points (pre-dose, 5 min, 15 min, 30 min, 1 hour, 2 hours, 4 hours, 8 hours, 12 hours and 24 hours post dose). Mice were bled on a rotating basis, each mouse contributing 3 time points to the blood collection. At the designated time points, animals were anaesthetized under isoflurane, and approximately 110 μL of blood per time point was collected via retro-orbital puncture into pre-cooled K2EDTA (anti-coagulant) tubes. Blood samples were put on wet ice and centrifuged (2000 g, 5 min at 4° C.) to obtain plasma within 30 minutes of sample collection. All samples were stored frozen at approximately −80° C. until analysis. Prior to analysis, samples were mixed with internal standard (dexamethasone) in acetonitrile, vortexed, centrifuged, and supernatant was injected for analysis. Concentration of compounds in plasma was determined using LC-MS-MS instrumentation (API 4000, Triple Quadruple with electrospray ionization; Acuity Ultra Performance Liquid Chromatography column C18, with MeOH and formic acid as organic solvents). AUC values were calculated using WinNonlin Professional 6.2 software package, non-compartmental pharmacokinetic model NCA200.
# [4] = Brain to Plasma (B:P) ratio in mice; type: in vivo; conditions: 10 mg/kg po, 2 hours post-dose; for Kp at 2 h: mouse, brain/plasma
# Experimental: Brain to Plasma (B:P) Ratio. […] Following collection, brain tissue was rinsed with cold saline, dried on filter paper, weighed and snap-frozen by placing on dry ice. All samples were stored frozen at approximately −80° C. until analysis. […] Plasma samples were treated with the identical method (except homogenization step) and the concentration of compound in each matrix was calculated based on generated standard curves.
# T1 sequence (O14980 whole entry): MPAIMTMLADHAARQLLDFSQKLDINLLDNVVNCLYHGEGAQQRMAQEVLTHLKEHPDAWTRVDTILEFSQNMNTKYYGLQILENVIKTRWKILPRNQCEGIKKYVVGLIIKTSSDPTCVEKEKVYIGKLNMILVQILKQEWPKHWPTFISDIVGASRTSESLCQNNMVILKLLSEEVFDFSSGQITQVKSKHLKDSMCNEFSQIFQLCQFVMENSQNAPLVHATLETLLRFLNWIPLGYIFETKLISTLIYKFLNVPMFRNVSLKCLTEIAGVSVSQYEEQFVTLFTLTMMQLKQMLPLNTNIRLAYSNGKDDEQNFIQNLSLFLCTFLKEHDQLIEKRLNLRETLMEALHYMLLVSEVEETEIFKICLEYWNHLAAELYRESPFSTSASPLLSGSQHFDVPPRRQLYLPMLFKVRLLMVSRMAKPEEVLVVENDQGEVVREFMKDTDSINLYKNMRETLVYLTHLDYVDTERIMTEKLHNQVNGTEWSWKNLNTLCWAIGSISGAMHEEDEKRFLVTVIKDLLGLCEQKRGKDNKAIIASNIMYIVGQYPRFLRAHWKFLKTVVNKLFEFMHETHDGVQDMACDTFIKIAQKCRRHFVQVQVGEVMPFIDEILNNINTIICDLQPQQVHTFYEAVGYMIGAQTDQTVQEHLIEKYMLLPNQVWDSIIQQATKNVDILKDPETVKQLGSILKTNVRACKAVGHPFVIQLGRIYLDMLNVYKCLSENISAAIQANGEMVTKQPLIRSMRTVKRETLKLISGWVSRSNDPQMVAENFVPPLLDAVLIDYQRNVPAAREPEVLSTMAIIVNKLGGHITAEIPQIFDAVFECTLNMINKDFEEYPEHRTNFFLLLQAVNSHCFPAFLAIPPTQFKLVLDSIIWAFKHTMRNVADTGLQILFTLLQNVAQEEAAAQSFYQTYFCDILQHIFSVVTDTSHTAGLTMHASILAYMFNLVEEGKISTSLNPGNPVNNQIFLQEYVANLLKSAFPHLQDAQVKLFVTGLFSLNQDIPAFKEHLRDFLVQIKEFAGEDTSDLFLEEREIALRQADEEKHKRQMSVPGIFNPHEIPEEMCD
Compound,pIC50 [1],other results
"O=C(/C=C\n1cnc(-c2cc(C(F)(F)F)cc(C(F)(F)F)c2)n1)NN1CCCC1 [Compound I-6, (Z)-3-(3-(3,5-bis(trifluoromethyl)phenyl)-1H-1,2,4-triazol-1-yl)-N-(pyrrolidin-1-yl)acrylamide]",≥ 6.00,–
"CN(NC(=O)/C=C\n1cnc(-c2cc(C(F)(F)F)cc(C(F)(F)F)c2)n1)c1ccccn1 [Compound I-7, (Z)-3-(3-(3,5-bis(trifluoromethyl)phenyl)-1H-1,2,4-triazol-1-yl)-N‘-methyl-N’-(pyridin-2-yl)acrylohydrazide]",≥ 6.00,pIC50 [2]: ≥ 6.00; AUC(0-inf) [3]: 12200 ng·h/mL; Kp at 2 h [4]: 1.5
"CN(NC(=O)/C=C\n1cnc(-c2cc(C(F)(F)F)cc(C(F)(F)F)c2)n1)c1cnccn1 [Compound I-8, (Z)-3-(3-(3,5-bis(trifluoromethyl)phenyl)-1H-1,2,4-triazol-1-yl)-N′-methyl-N′-(pyrazin-2-yl)acrylohydrazide]",≥ 6.00,pIC50 [2]: ≥ 6.00; AUC(0-inf) [3]: 4600 ng·h/mL; Kp at 2 h [4]: 2.1
"Cc1cccnc1N(C)NC(=O)/C=C\n1cnc(-c2cc(C(F)(F)F)cc(C(F)(F)F)c2)n1 [Compound I-9, (Z)-3-(3-(3,5-bis(trifluoromethyl)phenyl)-1H-1,2,4-triazol-1-yl)-N′-methyl-N′-(3-methylpyridin-2-yl)acrylohydrazide]",≥ 6.00,–
"Cc1ccc(NNC(=O)/C=C\n2cnc(-c3cc(C(F)(F)F)cc(C(F)(F)F)c3)n2)nc1 [Compound I-10, (Z)-3-(3-(3,5-bis(trifluoromethyl)phenyl)-1H-1,2,4-triazol-1-yl)-N′-(5-methylpyridin-2-yl)acrylohydrazide]",≥ 6.00,AUC(0-inf) [3]: 4170 ng·h/mL; Kp at 2 h [4]: 0.77
"CN(NC(=O)/C=C\n1cnc(-c2cc(C(F)(F)F)cc(C(F)(F)F)c2)n1)c1cccnc1 [Compound I-11, (Z)-3-(3-(3,5-bis(trifluoromethyl)phenyl)-1H-1,2,4-triazol-1-yl)-N′-methyl-N′-(pyridin-3-yl)acrylohydrazide]",≥ 6.00,–
"O=C(/C=C\n1cnc(-c2cc(C(F)(F)F)cc(C(F)(F)F)c2)n1)NNc1cccnc1 [Compound I-13, (Z)-3-(3-(3,5-bis(trifluoromethyl)phenyl)-1H-1,2,4-triazol-1-yl)-N′-(pyridin-3-yl)acrylohydrazide]",≥ 6.00,–
"O=C(/C=C\n1cnc(-c2cc(C(F)(F)F)cc(C(F)(F)F)c2)n1)NNc1cnc2ccccc2n1 [Compound I-14, (Z)-3-(3-(3,5-bis(trifluoromethyl)phenyl)-1H-1,2,4-triazol-1-yl)-N′-(quinoxalin-2-yl)acrylohydrazide]",≥ 6.00,–
"O=C(/C=C\n1cnc(-c2cc(C(F)(F)F)cc(C(F)(F)F)c2)n1)NNC1CCS(=O)(=O)C1 (centres unmarked) [Compound I-15, (Z)-3-(3-(3,5-bis(trifluoromethyl)phenyl)-1H-1,2,4-triazol-1-yl)-N′-(1,1-dioxotetrahydrothiophen-3yl)acrylohydrazide]",≥ 6.00,–
"O=C(/C=C\n1cnc(-c2cc(C(F)(F)F)cc(C(F)(F)F)c2)n1)NN1CCCCCC1 [Compound I-16, (Z)—N-(azepan-1-yl)-3-(3-(3,5-bis(trifluoromethyl)phenyl)-1H-1,2,4-triazol-1-yl)acrylamide]",≥ 6.00,–
"Cc1cc(NNC(=O)/C=C\n2cnc(-c3cc(C(F)(F)F)cc(C(F)(F)F)c3)n2)nc(C)n1 [Compound I-17, (Z)-3-(3-(3,5-bis(trifluoromethyl)phenyl)-1H-1,2,4-triazol-1-yl)-N′-(2,6-dimethylpyrimidin-4-yl)acrylohydrazide]",≥ 6.00,–
"O=C(/C=C/n1cnc(-c2cc(C(F)(F)F)cc(C(F)(F)F)c2)n1)NNc1cnccn1 [Compound I-18, (E)-3-(3-(3,5-bis(trifluoromethyl)phenyl)-1H-1,2,4-triazol-1-yl)-N′-(pyrazin-2-yl) acrylohydrazide]",≥ 6.00,AUC(0-inf) [3]: 7140 ng·h/mL
"O=C(/C=C\n1cnc(-c2cc(C(F)(F)F)cc(C(F)(F)F)c2)n1)NNc1ccncc1 [Compound I-19, (Z)-3-(3-(3,5-bis(trifluoromethyl)phenyl)-1H-1,2,4-triazol-1-yl)-N′-(pyridin-4-yl) acrylohydrazide hydrochloride]",≥ 6.00,AUC(0-inf) [3]: 4020 ng·h/mL; Kp at 2 h [4]: 0.2
"O=C(/C=C\n1cnc(-c2cc(C(F)(F)F)cc(C(F)(F)F)c2)n1)NN1CCN(Cc2ccccc2)CC1 [Compound I-20, (Z)-N-(4-benzylpiperazin-1-yl)-3-(3-(3,5-bis(trifluoromethyl)phenyl)-1H-1,2,4-triazol-1-yl) acrylamide]",≥ 6.00,–
"CCN1CCN(NC(=O)/C=C\n2cnc(-c3cc(C(F)(F)F)cc(C(F)(F)F)c3)n2)CC1 [Compound I-21, (Z)-3-(3-(3,5-bis(trifluoromethyl)phenyl)-1H-1,2,4-triazol-1-yl)-N-(4-ethylpiperazin-1-yl)acrylamide]",≥ 6.00,–
"O=C(/C=C\n1cnc(-c2cc(C(F)(F)F)cc(C(F)(F)F)c2)n1)NN1CCOCC1 [Compound I-22, (Z)-3-(3-(3,5-bis(trifluoromethyl)phenyl)-1H-1,2,4-triazol-1-yl)-N-morpholinoacrylamide]",≥ 6.00,–
"O=C(/C=C\n1cnc(-c2cc(C(F)(F)F)cc(C(F)(F)F)c2)n1)NNc1ccncn1 [Compound I-23, (Z)-3-(3-(3,5-bis(trifluoromethyl)phenyl)-1H-1,2,4-triazol-1-yl)-N′-(pyrimidin-4-yl)acrylohydrazide]",≥ 6.00,–
"O=C(/C=C\n1cnc(-c2cc(C(F)(F)F)c(Cl)c(C(F)(F)F)c2)n1)NNc1cnccn1 [Compound I-24, (Z)-3-(3-(4-chloro-3,5-bis(trifluoromethyl)phenyl)-1H-1,2,4-triazol-1-yl)-N′-(pyrazin-2-yl)acrylohydrazide]",≥ 6.00,AUC(0-inf) [3]: 3350 ng·h/mL; Kp at 2 h [4]: 0.7
"O=C(/C=C\n1cnc(-c2cc(C(F)(F)F)cc(C(F)(F)F)c2)n1)NNC1CC1 [Compound I-25, (Z)-3-(3-(3,5-bis(trifluoromethyl)phenyl)-1H-1,2,4-triazol-1-yl)-N′-cyclopropylacrylohydrazide]",≥ 6.00,–
"O=C(/C=C\n1cnc(-c2cc(C(F)(F)F)cc(C(F)(F)F)c2)n1)NN1CC(O)C1 [Compound I-26, (Z)-3-(3-(3,5-bis(trifluoromethyl)phenyl)-1H-1,2,4-triazol-1-yl)-N-(3-hydroxyazetidin-1-yl)acrylamide]",≥ 6.00,–
"COc1cc(-c2ncn(/C=C\C(=O)OC(C)C)n2)cc(C(F)(F)F)c1 [Compound X-1, reference compound]",≥ 6.00,pIC50 [2]: ≥ 6.00; AUCInf ([3]; 10 mg/kg): below the limit of detection
"CC(C)OC(=O)/C=C\n1cnc(-c2cc(OC(C)C)cc(C(F)(F)F)c2)n1 [Compound X-2, reference compound]",≥ 6.00,pIC50 [2]: ≥ 6.00
"O=C(/C=C\n1cnc(-c2cc(C(F)(F)F)cc(C(F)(F)F)c2)n1)N1CC(F)(F)C1 [Compound X-3, reference compound]",≥ 6.00,pIC50 [2]: ≥ 6.00; B:P [4]: 5.0
